Reference: patent publication US9670133B2, “Mixtures of cannabinoid compounds, and production and use thereof” (priority 2013, dated 2017)

Key:
NFAT = assay: Jurkat T cell model, NFAT dependent luciferase activation by PMA plus ionomycin; assay type: cell-based; conditions: luciferase construct
Procedure: (§1) Substances according to the invention were investigated in an accepted Jurkat T cell model. The underlying mechanism is based on the fact that the transcriptional activity of lymphokines, such as e.g. the one of IL-2, is based on the coordinated activation of different transcription factors, such as e.g. NFAT and NF-κB. The effect of the substances according to the invention on said factors was evaluated in-vitro with the aid of a luciferase-coupled construct (KBF-luc). Thereby, an activation of transiently transfected cells (Jurkat T cells) through PMA (plus ionomycin in case of NFAT activation), driven by a NF-κB or NFAT dependent promoter, leads to a strong induction of luciferase gene expression. The inhibition of the luciferase activity was measured as a function of the dose rate of the substance according to the invention. A knowledgeable person skilled in the art can easily follow such procedure from the literature (e.g. in Yuan et al. (2002), Sancho et al. (2003), Do et al. (2004) and Cencioni et al. (2010)).

CB2 receptors [1] = target: T1, CB2 receptors (Homo sapiens, UniProt P34972); assay: Signal transduction in CHO-CB2-CREluc cells (luciferase; forskolin, AM630); conditions: for Effect on CB2 receptor (in words): text statement
CB1 receptors [2] = target: T2, CB1 receptors (Homo sapiens, UniProt P21554); assay: Signal transduction in CHO-CB1-CREluc cells (luciferase; agonism, and antagonism against WIN); conditions: for Effect on CB1 receptor (in words): text statement
CB1 receptors [3] = target: T2, CB1 receptors; assay: biochemical; assay type: binding; design: purchased RBHCB1M400UA; host or cells: human cells (transfected); conditions: for Ki: dissociation constant, mean +/- SEM, competition with [3H]-CP55940; for CB1 (% binding): screening with a single high dose, displacement of [3H]-CP55940
CB2 receptors [4] = target: T1, CB2 receptors; assay: Competition binding study with [3H]-CP55940 in CB2 receptor transfected cell membranes; design: purchased RBXCB2M400UA; host or cells: human cells (transfected); conditions: for Ki: dissociation constant, mean +/- SEM, competition with [3H]-CP55940; for Ki (CB1): Ki (CB2) Selectivity for CB2 in comparison to CB1 (rounded): ratio of Ki values; for CB2 (% binding): screening with a single high dose, displacement of [3H]-CP55940
NF-κB = assay: Jurkat T cell model, NF-κB dependent luciferase activation by PMA; assay type: cell-based; conditions: luciferase construct
Procedure: as §1

[5] = listed as 2-Hydroxyethyl cannabidiolate
[6] = listed as Glyceryl cannabidiolate
[7] = listed as N-Methyl-sulfonyl cannabidiolate

T2 sequence (P21554 whole entry): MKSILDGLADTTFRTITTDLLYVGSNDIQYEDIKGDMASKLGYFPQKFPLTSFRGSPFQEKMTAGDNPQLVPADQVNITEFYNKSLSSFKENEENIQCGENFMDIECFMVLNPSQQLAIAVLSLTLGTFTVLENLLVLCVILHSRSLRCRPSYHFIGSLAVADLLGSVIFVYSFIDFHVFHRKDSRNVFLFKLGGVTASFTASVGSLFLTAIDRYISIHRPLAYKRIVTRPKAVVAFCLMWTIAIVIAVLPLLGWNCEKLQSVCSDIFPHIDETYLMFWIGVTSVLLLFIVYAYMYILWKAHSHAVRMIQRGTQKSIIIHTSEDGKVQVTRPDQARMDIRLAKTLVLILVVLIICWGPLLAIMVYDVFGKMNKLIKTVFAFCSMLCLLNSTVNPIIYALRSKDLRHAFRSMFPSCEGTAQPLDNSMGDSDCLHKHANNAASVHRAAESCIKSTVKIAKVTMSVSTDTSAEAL
T1 sequence (P34972 whole entry): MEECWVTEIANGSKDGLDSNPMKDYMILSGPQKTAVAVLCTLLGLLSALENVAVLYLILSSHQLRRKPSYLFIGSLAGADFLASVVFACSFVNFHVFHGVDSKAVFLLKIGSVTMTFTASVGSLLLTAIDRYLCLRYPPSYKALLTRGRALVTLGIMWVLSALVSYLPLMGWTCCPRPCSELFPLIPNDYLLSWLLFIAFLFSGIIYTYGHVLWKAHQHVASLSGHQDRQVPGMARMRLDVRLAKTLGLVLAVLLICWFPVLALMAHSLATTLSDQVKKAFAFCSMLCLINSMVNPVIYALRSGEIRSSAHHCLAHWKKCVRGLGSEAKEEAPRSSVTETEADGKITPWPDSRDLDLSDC

Row | SMILES | Inhibition of NFAT dependent activation of T cells (NFAT) | Effect on CB2 receptor (in words) (CB2 receptors [1]) | Effect on CB1 receptor (in words) (CB1 receptors [2]) | Ki (CB1 receptors [3]) | CB1 (% binding) (CB1 receptors [3]) | Ki (CB2 receptors [4]) | Ki (CB1): Ki (CB2) Selectivity for CB2 in comparison to CB1 (rounded) (CB2 receptors [4]) | CB2 (% binding) (CB2 receptors [4]) | Agonism and antagonism at CB2 (CB2 receptors [1]) | Effect on CB2 receptor (in words) (CB2 receptors [1]; [5]) | Agonism and antagonism at CB1 (CB1 receptors [2]) | Effect on CB1 receptor (in words) (CB1 receptors [2]; [5]) | Effect on CB2 receptor (in words) (CB2 receptors [1]; [6]) | Effect on CB1 receptor (in words) (CB1 receptors [2]; [6]) | Effect on CB1 receptor (in words) (CB1 receptors [2]; listed as cyclohexyl cannabidiolate) | Inhibition of NF-κB dependent activation of T cells (NF-κB) | Binding to CB1 receptors (in words) (CB1 receptors [3]) | Binding to CB2 receptors (in words) (CB2 receptors [4]) | Effect on CB2 receptor (in words) (CB2 receptors [1]; [7]) | Effect on CB1 receptor (in words) (CB1 receptors [2]; [7])
1 | C=C(C)C1CCC(C)=CC1c1c(O)cc(CCCCC)c(C(=O)OCC(O)CCC)c1O (centres unmarked) [2-hydroxypentyl cannabidiolate] | inhibition | strong activation | inhibit |  |  |  |  |  |  |  |  |  |  |  |  |  |  |  |  | 
2 | C=C(C)[C@@H]1CCC(C)=C[C@H]1c1c(O)cc(CCCCC)c(C(=O)OCCO)c1O [Compound III, 2-hydroxyethyl cannabidiolate] | inhibition | CB2 agonists | CB1 antagonists | 3920 nM | 77.3 ± 6.5% | 375 ± 47.7 nM | 10.4 | 90.3 ± 2.4% | + | strong activation | − | inhibit |  |  |  |  |  |  |  | 
3 | C=C(C)[C@@H]1CCC(C)=C[C@H]1c1c(O)cc(CCCCC)c(C(=O)OCC(O)CO)c1O (some centres unmarked) [Compound IV, Glyceryl cannabidiolate] | inhibition | CB2 agonists | CB1 agonists | 2170 nM | 90.2 ± 3.8% | 277 ± 78.7 nM | 7.8 | 101.6 ± 0.5% | + |  | + |  | strong activation | weak activation |  |  |  |  |  | 
4 | C=C(C)[C@@H]1CCC(C)=C[C@H]1c1c(O)cc(CCCCC)c(C(=O)OCC(O)CCC)c1O (some centres unmarked) [Compound V, 2-hydroxypentyl cannabidiolate] |  | CB2 agonists | CB1 antagonists | 538 ± 53.9 nM | 82.0 ± 8.0% |  |  |  | + |  | − |  |  |  |  |  |  |  |  | 
5 | C=C(C)C1CCC(C)=CC1c1c(O)cc(CCCCC)c(C(=O)OCCCCCC)c1O (centres unmarked) [Hexyl cannabidiolate] |  | antagonism | antagonism |  |  |  |  |  | + |  | + |  |  |  |  |  |  |  |  | 
6 | C=C(C)[C@@H]1CCC(C)=CC1c1c(O)cc(CCCCC)c(C(=O)OCCCCCC)c1O (some centres unmarked) [XI, Hexyl cannabidiolate] |  | CB2 agonists | CB1 agonists | 538 ± 53.9 nM | 92.2 ± 1.7% | 510 ± 29 nM | 1 | 97.2 ± 3.4% |  |  |  |  |  |  |  |  |  |  |  | 
7 | C=C(C)[C@@H]1CCC(C)=CC1c1c(O)cc(CCCCC)c(C(=O)OC2CCCCC2)c1O (some centres unmarked) [XII, Cyclohexyl cannabidiolate] |  |  | CB1 antagonists | 538 ± 53.9 nM | 81.5 ± 6.8% | 67 ± 4 nM | 37 | 99.2 ± 2.3% | 0 |  | − |  |  |  | antagonistic effect |  |  |  |  | 
8 | C=C(C)[C@@H]1CCC(C)=CC1c1c(O)cc(CCCCC)c(C(=O)OCCNS(C)(=O)=O)c1O (some centres unmarked) [XIII, N-Methyl-sulfonyl cannabidiolate] | strong inhibition | CB2 agonists | CB1 antagonists | 538 ± 53.9 nM | 98.9 ± 7.8% | 0.012 ± 0.001 nM | 22.5 | 104.9 ± 4.8% | + |  | − |  |  |  |  | strong inhibition | high binding affinity | high binding affinity | agonistic effect | antagonistic effect
